Earlier results, collected in article PMC12080252, “Daphnia magna as an Alternative Model for (Simultaneous) Bioaccumulation and Chronic Toxicity Assessment—Controlled Exposure Study Indicates High Hazard of Heterocyclic PAHs” (Environmental Science & Technology, 2025).
Values joined by “and” are separate entries in the source; they are usually repeats but may differ in a detail not shown here. Equal values may be shown once. Read-outs that look alike come from different tables or passages of the source.

Key:
D. magna = settings: Table S1; footnote not given; cited from earlier work
fish = settings: cited from earlier work
[1] = Table S10; ref SI ref 23 (UK Environment Agency Report); cited from earlier work
D. magna or D. pulex = settings: cited from earlier work; for accumulation in water fleas: compared with fish; for BCF (M of several values): ref SI refs 4, 5
[2] = system: aryl hydrocarbon receptor (AhR); settings: cited from earlier work
[3] = D. magna or D. pulex, ref SI refs 8, 10

Row | Molecule | half-life (fish; fish, Table S10, ref SI ref 23) | log BCFL5% (fish; fish, Table S10, ref SI ref 23) | log k2 (fish; fish, Table S10, ref SI ref 23) | log KOW [1] | further results
1 | c1ccc2c(c1)Cc1ccccc1S2 [thioxanthene] |  |  |  |  | lowest PNEC* (D. magna): 0.32 µg/L
2 | c1ccc2c(c1)Sc1ccccc1S2 [thianthrene] |  |  |  |  | bioaccumulation in fish (fish): high bioaccumulation in fish
3 | Clc1cc2oc3cc(Cl)c(Cl)cc3c2cc1Cl [2,3,7,8-Tetrachlorodibenzo furan] | 57.36 h | 2.89 | -1.92 h-1 | 6.53 | 
4 | c1ccc2c(c1)ccc1c3ccc4ccccc4c3[nH]c21 [dibenzocarbazole, 13H-dibenzo[a,i]carbazole] |  |  |  |  | bioaccumulation in fish (fish): high bioaccumulation in fish; half-life (D. magna or D. pulex; [3]): 9 h; log k2 (D. magna or D. pulex; [3]): -1.11 h-1; accumulation in water fleas (D. magna or D. pulex): accumulate even more in water fleas
5 | COP(=S)(OC)Oc1ccc(SC)c(C)c1 [O,O-Dimethyl O-[3-methyl-4-(methylthio)phenyl]ester phosphorothioic acid] |  |  |  | 4.17 | 
6 | CCCCCCCC(CCCC)c1ccc(S(=O)(=O)O)cc1 (stereo not shown) [C-12-5-LAS] | 13.86 h | 1.00 | -1.30 h-1 | 4.71 | 
7 | COP(=S)(OC)Oc1ccc(Cl)cc1C#N [Methyl isocyanothion] | 14.10 h | 2.09 | -1.31 h-1 | 3.58 | 
8 | c1ccc2ccccc2c1 [naphthalene] |  |  |  |  | half-life (D. magna or D. pulex; [3]): 0.42 h; log k2 (D. magna or D. pulex; in vivo): 0.22 h-1; AhR-mediated toxicity [2]: do not trigger AhR-mediated toxicity
9 | COc1ccc(C(c2ccc(OC)cc2)C(Cl)(Cl)Cl)cc1 [Methoxychlor] |  |  |  |  | accumulation in fish versus invertebrates (Figure 3B) (fish; in vivo): accumulating in invertebrates but not in fish
10 | c1ccc2cc3c(cc2c1)sc1ccccc13 [benzo[b]naphtho[2,3-d]thiophene] |  |  |  |  | bioaccumulation in fish (fish): high bioaccumulation in fish
11 | c1ccc2nc3ccc4ccccc4c3cc2c1 [benz(a)acridine] |  |  |  |  | half-life (D. magna or D. pulex; [3]): 1.2 h; log k2 (D. magna or D. pulex; [3]): -0.24 h-1; lowest PNEC* (D. magna): 0.016 µg/L
12 | c1ccc2cc3ccccc3cc2c1 [anthracene] |  |  |  |  | BCF (M of several values) (D. magna or D. pulex; D. magna or D. pulex): 944; half-life (D. magna or D. pulex; [3]): 1.18 h; log k2 (D. magna or D. pulex; [3]): -0.23 h-1; AhR-mediated toxicity [2]: do not trigger AhR-mediated toxicity
13 | c1ccc2cc3c(ccc4ccccc43)cc2c1 [benz[a]anthracene] |  |  |  | 5.76 | 
14 | Clc1cc2c(oc3c(Cl)c(Cl)c(Cl)c(Cl)c32)c(Cl)c1Cl [1,2,3,4,6,7,8-Heptachloro dibenzofuran] | 127.97 h | 3.16 | -2.27 h-1 | 7.40 | 
15 | Brc1cc(Br)c(-c2ccccc2)c(Br)c1 [2,4,6-tri bromobiphenyl] |  |  |  | 6.03 | 
16 | c1ccc2c(c1)Cc1ccccc1O2 [xanthene] |  |  |  |  | bioaccumulation in fish (fish; in vivo): high bioaccumulation in fish; AhR agonism [2]: weak to moderate aryl hydrocarbon receptor (AhR) agonists
17 | Clc1cc2c(oc3c(Cl)c(Cl)c(Cl)cc32)c(Cl)c1Cl [2,3,4,6,7,8-Hexachloro dibenzofuran] | 166.36 h | 3.69 | -2.38 h-1 | 7.30 | 
18 | Phenol, 4-nonyl-, branched, | 9.90 h | 2.58 | -1.15 h-1 | 5.92 | 
19 | COP(=S)(OC)Oc1c(Cl)cc(C)cc1Cl [O-(2,6-Dichloro-4-methylphenyl) O,O-dimethyl ester, Phosphorothioic acid] | 17.33 h | 2.36 | -1.40 h-1 | 4.56 | 
20 | c1ccc2c(c1)Cc1c-2ccc2ccccc12 [Benzofluorene, benzo[a]fluorene] |  |  |  |  | body burden (D. magna or D. pulex; D. magna): 17600 µg/kg; log BAF*L5% (D. magna or D. pulex; D. magna): 4.09 L kg^-1 lipid
21 | c1ccc2c(c1)oc1ccccc12 [dibenzofuran] |  |  |  |  | AhR agonism [2]: weak to moderate aryl hydrocarbon receptor (AhR) agonists
22 | c1ccc2ncccc2c1 [quinoline] |  |  |  |  | BCF (M of several values) (fish; in vivo): 2.5; log BCFL5% (fish; in vivo): 1.92
23 | CCCCCCCCCCCCCOCCOCCOCCOCCOCCOCCOCCOCCO [Octaethylene glycol monotridecyl ether] | 1.65 h | 1.69 | -0.38 h-1 |  | 

Row | Molecule | half-life (fish; fish, Table S10, ref SI ref 23) | log BCFL5% (fish; fish, Table S10, ref SI ref 23) | log k2 (fish; fish, Table S10, ref SI ref 23) | log KOW [1] | further results
24 | c1ccc2nc3ccccc3cc2c1 [acridine] |  |  |  |  | half-life (D. magna or D. pulex; [3]): 0.32 h; log k2 (D. magna or D. pulex; [3]): 0.33 h-1; AhR agonism [2]: weak to moderate aryl hydrocarbon receptor (AhR) agonists
25 | Clc1cc2oc3c(Cl)c(Cl)c(Cl)cc3c2cc1Cl [2,3,4,7,8-Pentachloro dibenzofuran] |  |  |  | 6.64 | 
26 | ClC1C(Cl)C(Cl)C(Cl)C(Cl)C1Cl (stereo not shown) [Cyclohexane, 1,2,3,4,5,6-hexachloro-, (1a,2a,3B,4a,5a,6B)-] | 12.60 h | 2.81 | -1.26 h-1 | 3.72 | 
27 | CCCCCCCCCCC(C)c1ccc(S(=O)(=O)O)cc1 (stereo not shown) [C-12-2-LAS] | 23.77 h | 2.16 | -1.54 h-1 | 4.71 | 
28 | c1ccc2c(c1)ccc1ccccc12 [phenanthrene] |  |  |  |  | accumulation in fish versus invertebrates (Figure 3B) (fish; in vivo): accumulated in fish but not in Daphnia and H. azteca; BCF (M of several values) (D. magna or D. pulex; D. magna or D. pulex): 325; log k2 (D. magna or D. pulex; [3]): -0.27 h-1; half-life (D. magna or D. pulex; in vivo): 1.29 h; AhR-mediated toxicity [2]: do not trigger AhR-mediated toxicity
29 | c1ccc2c(c1)Cc1ccccc1-2 [fluorene] |  |  |  |  | AhR-mediated toxicity [2]: do not trigger AhR-mediated toxicity
30 | Clc1cc2c(cc1Cl)Oc1c(cc(Cl)c(Cl)c1Cl)O2 [1,2,3,7,8-Pentachlorodibenzo-p-dioxin] | 554.52 h | 3.97 | -2.90 h-1 | 6.64 | 
31 | CC(C)OC(=O)C(C(=O)OC(C)C)=C1SCCS1 [Bis(1-methylethyl)ester, 1,3-dithiolan-2-ylidene propanedioic acid] | 3.65 h and 2.17 h | 1.45 and 1.59 and 1.65 | -0.72 h-1 and -0.49 h-1 | 2.88 | 
32 | Cc1c2ccccc2cc2ccccc12 [9-methyl-anthracene] |  |  |  |  | half-life (D. magna or D. pulex; [3]): 4.8 h; log k2 (D. magna or D. pulex; [3]): -0.84 h-1
33 | c1ccc2c(c1)Oc1ccccc1O2 [dibenzo[1,4]dioxane] |  |  |  |  | bioaccumulation in fish (fish): high bioaccumulation in fish
34 | c1ccc2c(c1)ccc1c3ccccc3sc21 [Benzo[b]naphtho[2,1-d]thiophene] |  |  |  |  | accumulation in water fleas (D. magna or D. pulex): accumulate even more in water fleas
35 | c1ccc2c(c1)sc1ccccc12 [dibenzothiophene] |  |  |  |  | bioaccumulation in fish (fish): high bioaccumulation in fish; lowest PNEC* (D. magna): 0.24 µg/L
36 | c1ccc2cnccc2c1 [isoquinoline] |  |  |  |  | half-life (D. magna or D. pulex; [3]): 0.04 h; log k2 (D. magna or D. pulex; [3]): 1.26 h-1
37 | CC(C)C(C(=O)OC(C#N)c1cccc(Oc2ccccc2)c1)c1ccc(Cl)cc1 (stereo not drawn) [Cyano(3-phenoxyphenyl)methyl ester, 4-chloro-alpha-(1-methylethyl) benzeneacetic acid] | 75.62 h | 2.64 | -2.04 h-1 | 6.20 | 
38 | ClC(Cl)=C(c1ccc(Cl)cc1)c1ccc(Cl)cc1 [pp’DDE] |  |  |  |  | BCF (M of several values) (fish; fish, ref SI refs 4, 7, 12): 54250
39 | Brc1ccc(Br)c(-c2cc(Br)ccc2Br)c1 [2,2',5,5'-tetra bromobiphenyl] | 1697.50 h | 4.86 | -3.39 h-1 | 6.50 | 
40 | CC1(C)[C@H](C(=O)OCc2cccc(Oc3ccccc3)c2)[C@@H]1C=C(Cl)Cl [cis-Permethrin] | 36.97 h | 2.45 | -1.73 h-1 | 7.43 | 
41 | Clc1cc2c(oc3cc(Cl)c(Cl)c(Cl)c32)c(Cl)c1Cl [1,2,3,6,7,8-Hexachloro dibenzofuran] | 213.28 h | 3.65 | -2.49 h-1 | 7.30 | 
42 | c1cc2cccc3c4cccc5cccc(c(c1)c23)c54 [perylene] |  |  |  |  | half-life (D. magna or D. pulex; [3]): 5.02 h; log k2 (D. magna or D. pulex; [3]): -0.86 h-1
43 | CC(C)Oc1cccc(NC(=O)c2ccccc2C(F)(F)F)c1 [N-[3-(1-Methylethoxy)phenyl]-2-(trifluoromethyl) benzamide] | 5.78 h | 1.32 | -0.92 h-1 | 3.70 | 
44 | Brc1cc(Br)c(-c2c(Br)cc(Br)cc2Br)c(Br)c1 [2,2',4,4',6,6'-hexa bromobiphenyl] | 2343.03 h | 4.55 | -3.53 h-1 | 7.20 | 
45 | Clc1cc2c(c(Cl)c1Cl)Oc1cc(Cl)c(Cl)c(Cl)c1O2 [1,2,3,6,7,8-Hexachloro dibenzo-p-dioxin] | 332.71 h | 3.64 | -2.68 h-1 | 7.30 | 
